Source: patent US20070042452A1, “Detection of plasma ACE2” (priority 2005, published 2007)
“Also recorded” adds a separate entry of the source.

What was measured:
[1] = tested on: ACE2 release from the plasma membrane of CHO cells expressing full-length human ACE2; experiment: Shedding of ACE2 from Chinese hamster ovary cells (ACE2 activity in medium, QFS assay); assay type: cell-based; details: PMA 1 μM, 4 hr incubation
Protocol: ACE2 catalytic activity was measured by cleavage of a quenched fluorescent substrate (QFS), namely (7-methoxycoumarin-4-yl)-acetyl-Ala-Pro-Lys(2,4-dinitrophenyl) as published in Vickers et al, 2002. The substrate is kept as stock at 5 mg/ml (7.14 mM) at −20° C. in DMSO, diluted 14.28-fold in ACE2 buffer (100 mM Tris-HCl, 1 M NaCl, pH 6.5) for a 500 μM working stock for assay. Assays were performed in black 96-well microtiter plates with 100 μl/well sample and ACE2 buffer in a final volume of 200 μl per well. In a separate series of wells, 100 μl/well sample, […] ACE2 buffer, and 20 μl/well of the specific ACE2 activity inhibitor, MLN-4760 (Millenium Pharmaceuticals, Cambridge, Mass., USA) at 100 mM is added. 50 μM QFS (20 μl/well) is then added to all wells.
Reactions proceeded at 37° C. within a temperature-controlled fluorescence microplate reader (FLUOStar Optima, BMG Labtech, Offenburg, Germany) and continuous readings of the liberated fluorescence taken over a 4 hr period (λex=320 nm, λem =405 nm). Specific ACE2 activity was calculated by subtraction of fluorescence in the presence of MLN-4760 inhibitor from the fluorescence in the absence of the MLN-4760 inhibitor.
Full-length human ACE2 was expressed in Chinese hamster ovary (CHO) cells using a modified DEAE-Dextran transfection method. […]

HepG2 cells = experiment: Shedding of ACE2 from HepG2 cells; assay type: cell-based; details: endogenous ACE2, phorbol ester treatment, data not shown

## CCCCCCCCCCCCCC(=O)O[C@@H]1[C@@H](C)[C@@]2(O)[C@@H](C=C(CO)C[C@]3(O)C(=O)C(C)=C[C@@H]23)[C@@H]2C(C)(C)[C@]12OC(C)=O [PMA]
[1]
  ACE2 release from the plasma membrane (ACE2 catalytic activity in medium): increased; also recorded: enhanced
[1]; listed as phorbol ester
  ACE2 release from the plasma membrane (ACE2 catalytic activity in medium): increased up to two-fold
HepG2 cells
  shedding of ACE2: increased up to two-fold
